Measured values from patent US5043450A, “8-alkoxyquinolonecarboxylic acid and salts thereof” (priority 1986, dated 1991).
≈ marks a conversion by molar mass, not a printed value.

What was measured:
Format in all cases: cell-based
[1] = test system: C. perfringens KYA 13123; experiment: microbe, parasite or virus in culture; conditions: Clostridium perfringens, KYA13123
[2] = test system: Klebsiella pneumoniae KY(GN)6445; experiment: Antibacterial spectra, MIC; conditions: 10^6 cells/ml, Gram -, read-out: MIC
[3] = test system: Morganella morganii IID 602; experiment: Antibacterial spectra, MIC; conditions: IID602, 10^6 cells/ml, Gram -, read-out: MIC
[4] = test system: Salmonella enteritidis IID 604; experiment: Antibacterial spectra, MIC; conditions: Salmonella enterica; 10^6 cells/ml; Gram -; read-out: MIC
[5] = test system: Citrobacter freundii IID 976; experiment: Antibacterial spectra, MIC; conditions: IID976, 10^6 cells/ml, Gram -, read-out: MIC
[6] = test system: Peptococcus magnus KY 017; experiment: Antibacterial spectra, MIC; conditions: Finegoldia magna, KY017; 10^6 cells/ml; Gram +; read-out: MIC
[7] = test system: F. varium KYA 8501; experiment: Antibacterial spectra, MIC; conditions: Fusobacterium varium, KYA8501
[8] = test system: Clostridium difficile I-E; experiment: Antibacterial spectra, MIC; conditions: Clostridioides difficile
[9] = test system: Eubacterium lentum GAI 5242; experiment: Antibacterial spectra, MIC; conditions: Eggerthella lenta, GAI5242; 10^6 cells/ml; Gram +; read-out: MIC
[10] = test system: S. aureus Smith; experiment: Antibacterial spectra, MIC; conditions: Staphylococcus aureus; 10^6 cells/ml; Gram +; read-out: MIC
[11] = test system: Propionibacterium acens 11828; experiment: Antibacterial spectra, MIC
[12] = test system: B. vulgatus KYA 29327; experiment: Antibacterial spectra, MIC; conditions: Phocaeicola vulgatus, KYA29327; 10^6 cells/ml; Gram -; read-out: MIC
[13] = test system: Fusobacterium mortiferum 4249; experiment: Antibacterial spectra, MIC
[14] = test system: S. epidermidis IID 866; experiment: Antibacterial spectra, MIC; conditions: Staphylococcus epidermidis, IID866; 10^6 cells/ml; Gram +; read-out: MIC
[15] = test system: P. mirabilis IID 994; experiment: Antibacterial spectra, MIC; conditions: Proteus mirabilis, IID994; 10^6 cells/ml; Gram -; read-out: MIC
[16] = test system: B. thetaiotaomicron (0661); experiment: Antibacterial spectra, MIC; conditions: Bacteroides thetaiotaomicron; 10^6 cells/ml; Gram -; read-out: MIC
[17] = test system: Acinetobacter anitratus IID 876; experiment: Antibacterial spectra, MIC; conditions: Acinetobacter calcoaceticus, IID876; 10^6 cells/ml; Gram -; read-out: MIC
[18] = test system: B. fragilis 0558; experiment: Antibacterial spectra, MIC; conditions: Bacteroides fragilis
[19] = test system: E. coli ATCC 10536; experiment: Antibacterial spectra, MIC; conditions: Escherichia coli, ATCC10536; 10^6 cells/ml; Gram -; read-out: MIC
[20] = test system: P. aeruginosa IID 1210; experiment: Antibacterial spectra, MIC; conditions: Pseudomonas aeruginosa, IID1210
[21] = test system: K. pneumoniae 1-220S; experiment: Antibacterial spectra, MIC; conditions: Klebsiella pneumoniae, 1220S; 10^6 cells/ml; Gram -; read-out: MIC
[22] = test system: Bacteroides fragilis GM 7000; experiment: Antibacterial spectra, MIC; conditions: GM7000, 10^6 cells/ml, Gram -, read-out: MIC
[23] = test system: Veillonella parvula KYA 10790; experiment: Antibacterial spectra, MIC; conditions: KYA10790, 10^6 cells/ml, Gram -, read-out: MIC
[24] = test system: Yersinia enterocolitica IID 981; experiment: Antibacterial spectra, MIC; conditions: IID981, 10^6 cells/ml, Gram -, read-out: MIC
[25] = test system: C. ramosum; experiment: Antibacterial spectra, MIC; conditions: Thomasclavelia ramosa
[26] = test system: Alcaligenes faecalis 0114002; experiment: Antibacterial spectra, MIC; conditions: 10^6 cells/ml, Gram -, read-out: MIC
[27] = test system: Pst. micros UPI 5464-1; experiment: Antibacterial spectra, MIC; conditions: Parvimonas micra, UPI54641; 10^6 cells/ml; Gram +; read-out: MIC
[28] = test system: Staphylococcus aureus 209 P; experiment: Antibacterial spectra, MIC; conditions: 10^6 cells/ml, Gram +, read-out: MIC
[29] = test system: Escherichia coli NIHJ JC-2; experiment: Antibacterial spectra, MIC; conditions: NIHJJC2, 10^6 cells/ml, Gram -, read-out: MIC
[30] = test system: Peptostreptococcus anaerobius KYA 27337; experiment: Antibacterial spectra, MIC; conditions: KYA27337
[31] = test system: Proteus vulgaris IFO 3167; experiment: Antibacterial spectra, MIC; conditions: IFO3167, 10^6 cells/ml, Gram -
Procedure: (§1) The antibacterial test was carried out according to the method designated by Japan Society of Chemotherapy.

[32] = test system: E. coli ML 4707; experiment: Antibacterial spectra, MIC; conditions: Escherichia coli, ML4707; 10^6 cells/ml; Gram -
Procedure: as §1

[33] = test system: Shigella sonnei IID 969; experiment: Antibacterial spectra, MIC; conditions: IID969, 10^6 cells/ml, Gram -
Procedure: as §1

[34] = test system: P. maltophilia GIFU 2491; experiment: Antibacterial spectra, MIC; conditions: Stenotrophomonas maltophilia, GIFU2491
[35] = test system: P. aeruginosa IFO 12689; experiment: Antibacterial spectra, MIC; conditions: Pseudomonas aeruginosa, IFO12689; 10^6 cells/ml; Gram -; read-out: MIC
[36] = test system: B. distasonis 8503; experiment: Antibacterial spectra, MIC; conditions: Parabacteroides distasonis, 10^6 cells/ml, Gram -, read-out: MIC
[37] = test system: Bacilus subtilis PCI 219; experiment: Antibacterial spectra, MIC; conditions: Bacillus subtilis, PCI219; 10^6 cells/ml; Gram +; read-out: MIC
[38] = test system: B. fragilis 25285; experiment: Antibacterial spectra, MIC; conditions: Bacteroides fragilis
[39] = test system: Enterobacter cloacae IID 977; experiment: Antibacterial spectra, MIC; conditions: IID977, 10^6 cells/ml, Gram -, read-out: MIC
[40] = test system: S. aureus IID 670 (Terajima); experiment: Antibacterial spectra, MIC; conditions: Staphylococcus aureus, IID670; 10^6 cells/ml; Gram +; read-out: MIC
[41] = test system: F. necrophorum S-45; experiment: Antibacterial spectra, MIC; conditions: Fusobacterium necrophorum, S45
[42] = test system: Serratia marcescens IID 618; experiment: Antibacterial spectra, MIC; conditions: IID618, 10^6 cells/ml, Gram -, read-out: MIC
[43] = test system: Pseudomonas aeruginosa V-1; experiment: Antibacterial spectra, MIC; conditions: V1, 10^6 cells/ml, Gram -, read-out: MIC
[44] = test system: P. cepacia GIFU 518; experiment: Antibacterial spectra, MIC; conditions: Burkholderia cepacia, GIFU518; 10^6 cells/ml; Gram -; read-out: MIC

SMILES: COc1c(N2CCNCC2)c(F)cc2c(=O)c(C(=O)O)cn(C3CC3)c12 [Exp. 1]
- MIC [1]: 0.39 µg/mL (≈ 1.08 µM)
- MIC [2]: 0.025 µg/mL (≈ 0.0692 µM)
- MIC [3]: 0.05 µg/mL (≈ 0.138 µM)
- MIC [4]: 0.05 µg/mL (≈ 0.138 µM)
- MIC [5]: 0.025 µg/mL (≈ 0.0692 µM)
- MIC [6]: 0.2 µg/mL (≈ 0.553 µM)
- MIC [7]: 3.13 µg/mL (≈ 8.66 µM)
- MIC [8]: 3.13 µg/mL (≈ 8.66 µM)
- MIC [9]: 0.2 µg/mL (≈ 0.553 µM)
- MIC [10]: 0.1 µg/mL (≈ 0.277 µM)
- MIC [11]: 3.13 µg/mL (≈ 8.66 µM)
- MIC [12]: 0.78 µg/mL (≈ 2.16 µM)
- MIC [13]: 0.39 µg/mL (≈ 1.08 µM)
- MIC [14]: 0.1 µg/mL (≈ 0.277 µM)
- MIC [15]: 0.025 µg/mL (≈ 0.0692 µM)
- MIC [16]: 1.56 µg/mL (≈ 4.32 µM)
- MIC [17]: 0.1 µg/mL (≈ 0.277 µM)
- MIC [18]: 0.39 µg/mL (≈ 1.08 µM)
- MIC [19]: 0.025 µg/mL (≈ 0.0692 µM)
- MIC [20]: 0.39 µg/mL (≈ 1.08 µM)
- MIC [21]: 0.05 µg/mL (≈ 0.138 µM)
- MIC [22]: 0.78 µg/mL (≈ 2.16 µM)
- MIC [23]: 0.2 µg/mL (≈ 0.553 µM)
- MIC [24]: 0.05 µg/mL (≈ 0.138 µM)
- MIC [25]: 3.13 µg/mL (≈ 8.66 µM)
- MIC [26]: 0.2 µg/mL (≈ 0.553 µM)
- MIC [27]: 0.2 µg/mL (≈ 0.553 µM)
- MIC [28]: 0.1 µg/mL (≈ 0.277 µM)
- MIC [29]: ≤ 6.3 ng/mL
- MIC [30]: 0.39 µg/mL (≈ 1.08 µM)
- MIC [31]: 0.0125 µg/mL (≈ 0.0346 µM)
- MIC [32]: 0.025 µg/mL (≈ 0.0692 µM)
- MIC [33]: 0.0125 µg/mL (≈ 0.0346 µM)
- MIC [34]: 0.39 µg/mL (≈ 1.08 µM)
- MIC [35]: 0.78 µg/mL (≈ 2.16 µM)
- MIC [36]: 1.56 µg/mL (≈ 4.32 µM)
- MIC [37]: 0.025 µg/mL (≈ 0.0692 µM)
- MIC [38]: 0.39 µg/mL (≈ 1.08 µM)
- MIC [39]: 0.05 µg/mL (≈ 0.138 µM)
- MIC [40]: 0.1 µg/mL (≈ 0.277 µM)
- MIC [41]: 0.39 µg/mL (≈ 1.08 µM)
- MIC [42]: 0.05 µg/mL (≈ 0.138 µM)
- MIC [43]: 0.1 µg/mL (≈ 0.277 µM)
- MIC [44]: 0.78 µg/mL (≈ 2.16 µM)
